Results published in patent US20240382589A1, “Synergistic Inhibition of eIF5A and Notch Signaling in Intermediate Tregs” (The University of Toledo, priority 2022, published 2024).
pIC50: −log10 of the molar value.

How the values were obtained:
[1] = target: T1, deoxyhypusine synthase (DHS) (Homo sapiens, UniProt P49366); details: cited from earlier work
T1 sequence (P49366 1-369): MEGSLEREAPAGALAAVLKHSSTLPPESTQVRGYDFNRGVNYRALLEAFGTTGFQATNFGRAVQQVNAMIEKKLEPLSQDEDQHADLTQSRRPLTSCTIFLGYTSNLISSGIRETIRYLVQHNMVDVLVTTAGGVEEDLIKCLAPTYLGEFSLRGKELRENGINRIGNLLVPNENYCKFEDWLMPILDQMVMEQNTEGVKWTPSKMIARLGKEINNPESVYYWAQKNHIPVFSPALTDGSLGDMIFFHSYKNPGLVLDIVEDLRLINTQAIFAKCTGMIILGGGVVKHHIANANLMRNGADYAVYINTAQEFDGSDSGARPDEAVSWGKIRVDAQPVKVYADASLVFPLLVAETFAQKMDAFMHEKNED

[2] = system: anti-GAD65, anti-IA2 and anti-insulin autoantibodies; assay: Anti-GAD65, anti-IA2 and anti-insulin autoantibody ELISA in mouse serum; type: in vivo; details: TID mice; treatment with GC7 or anti-DLL4
Procedure: Anti-GAD65, anti-IA2, and anti-insulin autoantibodies were measured in mice serum using
an Anti-GAD65 ELISA kit (Kronus, Star, ID) according to the manufacturer's instructions. Mice anti-insulin antibodies were measured using a mouse insulin autoantibody (IAA) ELISA kit (Abbexa, catalog #abx053161. Abbexa LLC, Houston, TX, United States; with a positive predictive value range between 0.16 and 10 ng/ml). Anti-IA2 autoantibodies were also measured using a human IA2 autoantibody (IA2Ab) ELISA kit (Kronus, Star, ID) following the manufacturers' manual.

[3] = system: CD4, CD8 and CD25 T cells isolated from PLN of TID mice; assay: In vitro co-stimulation / CFSE proliferation of T cells from PLN of TID mice; type: cell-based, mouse
Procedure: Purified CD4, CD8, and CD25 cells were isolated from TID mice using the mice CD4 T Cell Isolation Kit (#130-104-454), CD8a+ T Cell Isolation Kit II (#130-095-236), and CD4+ CD25+ Regulatory T Cell Isolation Kit (Cat no: 130-091-041) following standard protocol. Briefly, after sacrificing the TID mice, pancreatic lymph nodes (PLN) were isolated and single cell suspensions were prepared. Non-CD4 T cells and non-CD8 T cells were isolated using magnetically labeled microbeads. Non-CD4 T cells were retained in the MACS column and non-touch enriched CD4 and CD8 cells were eluted from the column. Simultaneously CD25 positive cells were separated from the CD4 clute with anti-CD25PE microbeads with more than 90% purity. Single cell suspensions of CD4, CD8, and CD25^− T cells were stained with carboxyfluorescein succinimidyl ester (CFSE) to track the induced proliferation. Single cell suspensions of purified CD4, CD8, and CD25 T cells (CFSE-labeled) were co-stimulated with recombinant human GAD65 (rhGAD65) protein ([…]), GC7 (100 mM), anti-DLL4 ([…]), rhGAD65+GC7, rhGAD65+GC7+anti-DLL4, or CD3+CD28 stimulated for 4 days (n=7). CD4 T cells (CFSE-labeled) were further stained with fluorochrome-conjugated antibodies against mouse IL-17(clone 559502, PE), IFNg (clone 554413, APC), and forkhead box P3 (Foxp3) (clone MF23, Alexa Fluor@488, Alexa Fluor@647). In vitro proliferation assays were analyzed by FLOWJO V10 Beta software using fix ratio, fix CV, and fix background from unstimulated cells.

TID mice and NOD mice = details: cited from earlier work

SMILES	pIC50 [1]	GAD65 antibody titer [2]	Treg population (expression of CD25 and FOXP3 on CD3+ CD4 T cells) ([3]; GC7 (100 mM), 4 days)	replicative index of Treg cells (Treg peak) ([3]; GC7 (100 mM), CFSE)	proliferation index of CD8 T cells ([3]; compared to conventional stimulation with anti-(CD3+CD28)/rhGAD65)	adverse effect in previous in vivo studies (TID mice and NOD mice)
C/C(=N\NC(=N)N)c1cc(NC(=O)CCCCCCCCC(=O)Nc2cc(/C(C)=N/NC(=N)N)cc(/C(C)=N/NC(=N)N)c2)cc(/C(C)=N/NC(=N)N)c1 [Semapimod]	~2.70					
N=C(N)NCCCCCCCN [GC7, N1-guanyl-1,7-diaminoheptane]	7.77	significantly reduced	significantly enriched	significant Treg peak	not significant	did not reveal any significant adverse effect
